From patent publication US20070203079A1, “Methods of using small molecule compounds for neuroprotection” (priority 2005, published 2007)
Where a name gives a salt, the structure may show the parent alone. Marks after values point to notes of the source that are not given here.

Legend:
Type in all cases: in vivo, C. elegans
[1] = system: transgenic worm line Pdat-1::CAT-2; assay: Neurodegeneration by overexpression of cat-2 (tyrosine hydroxylase)
Text: Overexpression of cat-2, the worm homologue for tyrosine hydroxylase, results in increased intraneuronal dopamine production and a characteristic loss of dopaminergic neurons in 75% of transgenic worms as compared to wild type (Cao et al., J Neurosci, 25(1):3801-3812). Co-expression of worm or human torsin proteins reduces the loss of dopaminergic neurons to a slight degree although neuronal degeneration is still present. The purpose of these experiments was to determine the effect of small molecule compounds in the Prestwick library in another different C. elegans model of neurodegeneration.
Worms were cultured using the same methods described above. A transgenic worm line expressing Pdat-1::CAT-2 expresses a phenotype that results in visible neurodegeneration at all developmental stages in an integrated line, in which only approximately 55% of 7 day old animals maintained all four CEP neurons. […] Compound 166 is an example of one such compound.
To further examine the neuroprotective effect of meclofenamic acid and lidocaine, we used a transgenic line (Pdat-1::CAT-2) we previously described (Cao et al., J Neurosci, 2005, 25(1): 3801-3812). Overexpression of cat-2, the C. elegans homolog of the tyrosine hydroxylase (“TH”) gene, causes a high level of DA production and as a result, DA neuron degeneration is observed (Cao et al., J Neurosci, 2005, 25(1): 3801-3812). […] We also tested whether meclofenamic acid was able to suppress CAT-2-induced neurodegeneration. […] Therefore, meclofenamic acid can protect DA neurons from degeneration produced by overexpression of the dopamine precursor, tyrosine hydroxylase.

[2] = system: worms containing Pdat-1::GFP+Pdat-1::torsinA+Pdat-1::torsinA (ΔE) after 6-OHDA exposure; assay: 6-OHDA dopaminergic neurodegeneration in worms with wt and mutant torsinA; settings: wt and mutant torsinA co-expressed; 6-OHDA insult
Text: Previous studies have established that the “CEP” and “ADE” mechanosensory neurons in C. elegans undergo readily discernable neuronal degeneration after treatment with the dopamine-selective neurotoxin 6-OHDA (Nass et al, 2002). The toxicity of 6-OHDA is mediated through the formation of reactive oxygen species by the generation of hydrogen peroxide and […] via a nonenzymatic auto-oxidation process (Kumar et al., 1995; Foley and Riederer, 2000). […] This degeneration can be monitored in living animals by coexpressing with green fluorescent protein and categorized into three temporally and morphologically distinct stages, including neuronal process blebbing, cell body rounding with process loss, and cell body loss. These characteristic changes reproducibly appear in this order within a few hours, recapitulating observations in MPTP-treated monkeys and in 6-OHDA-treated rats, in which damage to striatal terminals leads to retrograde changes and precedes that of SNpc cell bodies (Berger et al., 1991; Herkenham et al., 1991). The actions of torsin protein in 6-OHDA-mediated neurodegeneration has recently been shown (Cao et al., J Neurosci, 25(1):3801-3812). Animals were treated with various concentrations of 6-OHDA and neurodegeneration was followed over time, as worms develop and age, by co-expression of a dopamine GFP marker in these transparent animals.
C. elegans nematodes were grown at 25° C. on NGM plates as described by Brenner (Brenner, Genetics, 1974, 77: 71-94). Two transgenic C. elegans lines were used for primary screens of the Prestwick small molecule library. A transgenic worm line expressing Pdat-1::GFP; with both wild type (Pdat-1::torsinA) or mutant (Pdat-1:::torsinA(ΔE)). Torsin-A expresses a phenotype that results in visible neurodegeneration after treatment with 6-OHDA. Transgenic worms were plated on drug plates and progeny were studied for morphological changes in the 8 dopaminergic neurons present in C. elegans.
Drugs were administered to C. elegans according to a standard procedure (Rand and Johnson, Methods Cell Biol, 1995, 48: 187-204) by mixing the solubilized drug with the agar medium on which the worms are grown. This mode of administration allows the continuous exposure of worms to the drug.
Each drug was first dissolved in an appropriate solvent, followed by adding the drug solution into pre-autoclaved media, with the volume of drug solution already taken into account. All drugs were tested at 0.5 mg/ml initial concentration, a few of which were toxic to worms and then tested at 0.1 mg/ml or 0.025 mg/ml concentration. Each plate was seeded with 100 μl concentrated E. coli OP50 bacteria
Age-synchronized worms were obtained by treating gravid adults with 2% sodium hypochlorite and 0.5M NaOH to isolate embryos (Lewis Fleming, 1995). These embryos were grown for 30 h at 25° C. At the L3 stage, larvae were incubated with 10 mM (50 mM) 6-OHDA and 2 mM (or 10 mM) ascorbic acid for 1 h with gentle agitation every 10 minutes. (Nass et al., 2002). The worms were then washed and spread onto NGM plates seeded with bacteria (OP50) and scored at time points ranging from 2 to 72 h after 6-OHDA exposure.
Immediately after 6-OHDA treatment, worms containing the transgenes were selected under a fluorescence dissecting microscope, based on the presence of GFP, and transferred to a fresh NGM plate seeded with OP50. For each time point, 30-40 worms were applied to a 2% agarose pad and immobilized with 3 mM levamisole. Worms were examined under a Nikon Eclipse E800 epifluorescence microscope equipped with an Endow GFP filter cube (Chroma Technology, Rockingham, Vt.). For ease of analysis, only the four CEP DA neurons in the head of the worm were scored. […]

[3] = system: transgenic worms containing the transgene Punc-54::Q82::GFP without any torsinA expression; assay: Protein aggregate assay in worms without torsinA expression
Protocol: (§1) C elegans nematodes were grown at 20° C. on NGM plates as described by Brenner (Brenner, Genetics, 1974, 77: 71-94). Several transgenic C. elegans lines were used for primary screens of the Prestwick small molecule library. A transgenic worm line expressing Punc-54::Q82-GFP; with both wild type (“wt”) (Punc=54: :torsinA) or mutant (Punc-54::torsinA(ΔE)). Torsin-A expresses a phenotype that results in visible protein aggregation under fluorescent microscope. Transgenic worms were plated on drug plates and progeny were studied for a return to soluble protein. […]
(§2) The screening assays used to identify the compounds use protein aggregation readouts to determine the specificities of molecular action. […]
(§3) The methods for the aggregate analysis assay are described in Caldwell et al. (Hum Mol Genetics, 2003, 12(3): 307-319). […] MetaMorph Software (Universal Imaging Inc.) was used for pseudocoloration of images, image overlay, and aggregate size quantitation. For each worm line analyzed, average aggregate size was determined by capturing images of all aggregates in the posterior region of 30 L3-staged animals (for Q82::GFP aggregates) or all aggregates in 30 adult animals/day (for Q19::GFP analyses) at 1000× magnification. […]

[4] = system: worms expressing Punc-54::Q82::GFP+Punc-54::torsinA (ΔE) with a mutant torsinA only; assay: Protein aggregate assay in worms with mutant torsinA only
Protocol: as §1, §2, §3

[5] = system: protein misfolding and aggregation in transgenic worms; assay: Corrective assay of protein aggregation (drug from L2 stage onward); settings: drug exposure from L2 stage onward; scored at L3 and young adult
Protocol: To see the corrective effect of the candidate drug compounds on protein misfolding and aggregation, five gravid adult worms were placed onto a solvent control plate and grown at 20° C. for approximately 3 days. 35-40 Fl worms at L2 stage were picked and transferred to a drug plate. Thirty worms at L3 stage were counted for aggregate number 8 hours later. Thirty young adults were analyzed 32 hours later.
(§4) To calculate the scaled effectiveness of special regimen of drugs on worms based on standardized decrease in protein aggregates. The following formula was used: (A−B)/(A−C)×100%, where
(§5) A=number of aggregates for worms growing on solvent control plates
(§6) B=number of aggregates for worms grown on the specific drug plate for the entire life of the worms
C=number of aggregates for worms that received exposure from L2 stage (until adulthood)
(§7) If the regimen has no effect, the value would equal 0%. Conversely, if the regimen was as effective as raising the worms on the drug for their entire life, the value would equal 100%.

[6] = system: Pdat-1::GFP+Pdat-1::α-synuclein+Pdat-1:: torsinA (ΔE) worms; assay: α-synuclein toxicity assay, mutant torsinA
Text: (§8) We have previously shown that torsinA can prevent dopamine (“DA”) neuron degeneration resulting from overexpression of α-synuclein in the DA neurons of C. elegans, while torsinA (“ΔE”) has a reduced neuroprotection (Cao et al., J Neurosci, 2005, 25(1): 3801-3812). Specifically, only 26.1±5.3% of the worms expressing Pdat-1::GFP+Pdat-1::α-synuclein maintained all 4 wildtype CEP DA neurons as 4 day adults while the percentages of the worms expressing Pdat-1::GFP+Pdat-1::α-synuclein+Pdat-1::torsinA and Pdat-1::GFP+Pdat-1::α-synuclein+Pdat-1:: torsinA (ΔE) are 57.3±1.6% and 42.2±7.3%, respectively (Cao et al., J Neurosci, 2005, 25(1): 3801-3812) (FIG. 8).
(§9) All molecules are coded by Prestwick Library number. TorsinA-dependent compounds identified from the aggregation assay have torsinA-specific effects and, therefore, are likely to function in the same manner in the α-synuclein toxicity assay. All three α-synuclein transgenic lines were exposed to the five torsinA-dependent compounds to determine their torsinA-specificity (FIG. 9). As expected, none of these compounds had any effect in Pdat-1::GFP+Pdat-1::α-synuclein when torsinA expression is absent.

[7] = system: protein misfolding and aggregation in transgenic worms; assay: Preventative assay of protein aggregation (drug from hatching to L2 stage); settings: exposure from hatching to L2 stage; scored at L3 and young adult
Protocol: To see the preventative effects of the candidate drug compounds on protein misfolding and aggregation, five gravid adult worms were placed onto each drug plate and grown at 20° C. for approximately 3 days. 35-40 Fl worms at L2 stage were picked and transferred to a control plate with the same concentration of control solvent compared to the drug plate. Thirty worms at L3 stage were counted for aggregate number 8 hours later. Thirty young adults were analyzed 32 hours later.
as §4, §5, §6
C=number of aggregates for worms that received pre-L2 exposure and were then removed to solvent control plates
as §7

[8] = system: Pdat-1::GFP+Pdat-1::α-synuclein+Pdat-1::torsinA worms; assay: α-synuclein toxicity assay, wt torsinA
Text: as §8, §9

[9] = system: GFP::DAT-1; assay: Pdat-1::GFP::DAT-1 expression within DA neurons; settings: for Neurons with cell body and dendritic/axonal GFP: water control 70%; for Neurons with cell body and dendritic/axonal GFP / Mean pixel intensity of cell bodies ± SEM (fluorescence intensity): HCl; for Mean pixel intensity of cell bodies ± SEM (fluorescence intensity): water control 1970 ± 80, compounds at 1.85, 1.49, 1.86 mM
[10] = system: transgenic worms containing the transgene Pdat-1::GFP without any torsinA expression; assay: 6-OHDA dopaminergic neurodegeneration in worms without torsinA; settings: no torsinA expression
[11] = Pdat-1::GFP::DAT-1, listed as Lidocaine hydrochloride

## NCc1ccc(S(N)(=O)=O)cc1 [Compound 166, Mafenide]
[1]; Pdat-1::CAT-2, result in words
  neuroprotective action on dopaminergic neurons overexpressing cat-2: demonstrated a reduction in the standardized decrease in dopaminergic neurodegeneration
[2]
  neuroprotection of dopaminergic neurons against 6-OHDA: little to no neuroprotection
[3]
  reduction of protein aggregates: reduced the presence of protein aggregates

## CN(C)C(=O)C(CCN1CCC(O)(c2ccc(Cl)cc2)CC1)(c1ccccc1)c1ccccc1 [Compound 144, Loperamide HCl]
[4]
  reduction of aggregation: reduced aggregation
[5]
  corrective effect on protein aggregation: seem to be beneficial
[6]
  enhanced DA neuron survival: 39.5±1.4%
[7]
  preventative effect on protein aggregation: seem to be beneficial
[8]
  enhanced wild type DA neuron survival: failed to show any significant neuroprotection

## CCN(CC)CC(=O)Nc1c(C)cccc1C [Compound 50, lidocaine HCl]
[1]; Pdat-1::CAT-2
  neuroprotective effect against CAT-2-induced neurodegeneration: −7.9%
[9]; Pdat-1::GFP::DAT-1, water control 0%
  Worms with no GFP: 0%
[9]; Pdat-1::GFP::DAT-1, water control 30%
  Neurons with cell body GFP only: 70%^e
[9]; Pdat-1::GFP::DAT-1
  Neurons with cell body and dendritic/axonal GFP: 30%
  Mean pixel intensity of cell bodies ± SEM (fluorescence intensity): 1612 A.U.
[9]; [11]
  Neurons with cell body and dendritic/axonal GFP: 30%^d
  Mean pixel intensity of cell bodies ± SEM (fluorescence intensity): 1612 ± 78 A.U.
[9]; result in words
  effect on GFP::DAT-1 level: can down-regulate the level of DAT-1 protein directly
[10]
  reduction of 6-OHDA-mediated neurodegeneration: reduced the 6-OHDA-mediated neurodegeneration
